The text below walks through data of paper PMC2680961, “Homologous desensitization of signalling by the alpha (α) isoform of the human thromboxane A2 receptor: A specific role for nitric oxide signalling” (Biochimica et Biophysica Acta, 2007).

In the experiment the target is T1, TPα^S331,T337,S340A (Homo sapiens, UniProt P21731, S331A/S340A/T337A).
T1 construct: expressed in transfected cells
T1 sequence (P21731 1-343 S331A/T337A/S340A): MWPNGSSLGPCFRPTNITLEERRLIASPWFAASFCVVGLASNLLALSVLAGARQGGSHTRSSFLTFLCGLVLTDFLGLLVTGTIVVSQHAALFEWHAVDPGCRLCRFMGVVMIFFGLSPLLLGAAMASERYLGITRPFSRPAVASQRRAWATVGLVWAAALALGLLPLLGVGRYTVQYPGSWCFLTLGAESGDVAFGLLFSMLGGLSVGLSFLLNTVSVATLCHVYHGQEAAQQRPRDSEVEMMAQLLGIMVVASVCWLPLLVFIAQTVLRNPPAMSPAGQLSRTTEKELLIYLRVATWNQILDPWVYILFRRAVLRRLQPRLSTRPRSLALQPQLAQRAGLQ
Nature of the experiment: Intracellular calcium mobilization, HEK.TP^S331,T337,S340A cells. It is filed as cell-based. The conditions noted are these: for Δ[Ca2+]i, U46619-induced: HEK.TP^S331,T337,S340A. The method, then:
Measurement of intracellular calcium mobilization ([Ca^2+]i) in FURA2/AM preloaded HEK 293 cell lines (2 × 10^6 cells/dish), each transiently co-transfected with pADVA (10 μg), and pCMV:Gαq (25 μg), was carried out as previously described. To investigate the effect of GRK2/βARK1 on TP-mediated [Ca^2+]i mobilization, HEK.TPα or HEK.TPβ cells (2 × 10^6 cells/dish) were co-transfected with pADVA (10 μg), pCMV:Gαq (25 μg) along with pRK5:βARK1^495–689 (25 μg), encoding a dominant negative form of GRK2/βARK1[39]. Approximately 48 h post-transfection, cells were harvested by scraping, washed twice in ice-cold PBS and resuspended in HBSSHB (modified Ca^2+/Mg^2+-free Hank's buffered salt solution, containing […], pH 7.67, 0.1% bovine serum albumin (BSA)) buffer at 10^7 cells/ml and incubated in the dark with 5 μM FURA2/AM for 45 min at 37 °C. […] For each measurement of [Ca^2+]i mobilization, aliquots of cells were diluted to 0.825 × 10^6 cells/ml in HBSSHB, 1 mM CaCl2 and FURA2 fluorescence was recorded (2 ml aliquots of cells) at 37^ °C with gentle stirring with a Perkin Elmer-Cetus LS50-B spectrofluorometer at excitation wavelengths of 340 nm and 380 nm and emission wavelength of 510 nm, respectively.
Cells were stimulated with the TP agonist U46619 (1 μM) and changes in [Ca^2+]i mobilization were monitored as a function of time. To assess agonist-mediated homologous desensitization, cells (0.825 × 10^6 cells/ml; 2 ml per assay) were stimulated with 1 μM U46619 (Primary stimulation) or, as a control, with the vehicle for 4 min; thereafter, cells were collected by centrifugation (900×g, 5 min); were washed twice in 2 ml HBSSHB, 1 mM CaCl2; and finally resuspended in 2 ml HBSSHB,1 mM CaCl2 and were left to recover over various time intervals (ranging from 0 to 60 min); thereafter, cells re-stimulated with 1 μM U46619 (Secondary stimulation) and changes in [Ca^2+]i mobilization were monitored as a function of time. […]

With `CCCCC[C@H](O)/C=C/[C@@H]1[C@@H](C/C=C\CCCC(=O)O)[C@H]2CO[C@@H]1C2` [U46619], the “Δ[Ca2+]i, U46619-induced” value runs as follows: (primary 1 μM U46619 4 min) 195 ± 12 nM; (secondary 1 μM U46619 at 15 min) 67 ± 8.2 nM. Also, under “TPα^S331,T337,S340A”, the “secondary U46619 [Ca2+]i response relative to primary response” value was ~34%.
